Laboratory results: US6713301B1, “Artificial T helper cell epitopes as immune stimulators for synthetic peptide immunogens” (United Biomedical, Inc., priority 1998, dated 2004)

B1: 99 (peptide)
chain: TAKSKKFPSYTATYQFGGKKKIITITRIITIITTIDGGCGETYQSRVTHPHLPRALMRSTTKC

Test system: human IgE myeloma protein
Assay: Human IgE ELISA of guinea pig immune sera
Design: species or system guinea pigs
Details: in vivo
Method: These peptide immunogens were used to immunize groups of 3 guinea pigs using 100 μg/dose, formulated in CFA at week 0, IFA at weeks 3 and 6, and administered intramuscularly. For comparison, a group of two animals were immunized with a peptide/KLH carrier protein conjugate at 200 μg/dose, similarly administered. ELISA results of serum samples collected at week 8 are shown. In the ELISA a human IgE myeloma protein (American Biosystem, Inc. cat no. A113) was used as the solid-phase immunoadsorbant. The procedure used was identical to the peptide-based ELISAs described previously, except IgE myeloma was used as the solid phase immunoadsorbant. […] The inclusion of the Inv domain sequence (SEQ ID NO:78) augmented the immunogenicity, as shown by the enhanced immunogenicity of SEQ ID NO:99 over SEQ ID NO:98.

Row | Molecule | Log10 ELISA (average for animals of the group) [Log10] | No. responding
1 | 98 (KKKIITITRIITIITTIDGGCGETYQSRVTHPHLPRALMRSTTKC) [compound 98] | 2.35 | 3/3
2 | B1 | 3.28 | 3/3
